# Laboratory results as given in the supplement of paper PMC10307832.
# What was measured:
# Assay in all cases: relative viability (nuclei count vs DMSO), 5 days (fraction); higher = more cells survive
# NCI-H2085 = tested on: NCI-H2085
# In short: (§1)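 After 5 days of treatment, lung cancer cells in 1536-well plates were fixed and stained in a single step (final 0.05% Triton X-100, 1% formaldehyde, 1 ug/ml Hoechst) and their nuclei counted on 4× images. Treatment had been applied by pin tool the day after seeding as one drug alone or as a fixed anchor-drug dose with five library-drug doses (not always all listed) in √10 steps. Relative viability is the nuclei count of treated wells divided by that of vehicle wells, and values are medians of duplicate plates.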
# EMC-BAC-2 = tested on: EMC-BAC-2
# In short: as §1
# NCI-H1915 = tested on: NCI-H1915
# In short: as §1
# NCI-H322M = tested on: NCI-H322M
# In short: as §1
# NCI-H1734 = tested on: NCI-H1734
# In short: as §1
# NCI-H647 = tested on: NCI-H647
# In short: as §1
# EPLC-272H = tested on: EPLC-272H
# In short: as §1
# NCI-H2126 = tested on: NCI-H2126
# In short: as §1
# NCI-H2347 = tested on: NCI-H2347
# In short: as §1
# LXF-289 = tested on: LXF-289
# In short: as §1
# NCI-H1993 = tested on: NCI-H1993
# In short: as §1
# SW 1573 = tested on: SW 1573
# In short: as §1
# NCI-H2009 = tested on: NCI-H2009
# In short: as §1
# NCI-H727 = tested on: NCI-H727
# In short: as §1
# NCI-H1563 = tested on: NCI-H1563
# In short: as §1
# H3255 = tested on: H3255
# In short: as §1
# NCI-H661 = tested on: NCI-H661
# In short: as §1
# HOP-62 = tested on: HOP-62
# In short: as §1
# LCLC-97TM1 = tested on: LCLC-97TM1
# In short: as §1
# NCI-H2023 = tested on: NCI-H2023
# In short: as §1
# SK-LU-1 = tested on: SK-LU-1
# In short: as §1
# PC-14 = tested on: PC-14
# In short: as §1
structure (smiles),measurement,setting,value
COc1cc2nccc(Oc3ccc(NC(=O)Nc4cc(C)on4)c(Cl)c3)c2cc1OC [Tivozanib] + C[C@@H](Oc1cc(-c2cnn(C3CCNCC3)c2)cnc1N)c1c(Cl)ccc(F)c1Cl [Crizotinib] (partner 1 µM),relative viability,NCI-H2085; first compound 0.005 µM,0.699
same,relative viability,NCI-H2085; first compound 0.01581 µM,0.87
same,relative viability,NCI-H2085; first compound 0.05 µM,0.912
same,relative viability,NCI-H2085; first compound 0.1581 µM,0.802
same,relative viability,NCI-H2085; first compound 0.5 µM,0.814
same,relative viability,EMC-BAC-2; first compound 0.005 µM,0.769
same,relative viability,EMC-BAC-2; first compound 0.01581 µM,0.807
same,relative viability,EMC-BAC-2; first compound 0.05 µM,0.74
same,relative viability,EMC-BAC-2; first compound 0.1581 µM,0.754
same,relative viability,EMC-BAC-2; first compound 0.5 µM,0.791
same,relative viability,NCI-H1915; first compound 0.005 µM,0.863
same,relative viability,NCI-H1915; first compound 0.01581 µM,0.905
same,relative viability,NCI-H1915; first compound 0.05 µM,0.972
same,relative viability,NCI-H1915; first compound 0.1581 µM,0.924
same,relative viability,NCI-H1915; first compound 0.5 µM,0.857
same,relative viability,NCI-H322M; first compound 0.005 µM,0.9
same,relative viability,NCI-H322M; first compound 0.01581 µM,0.907
same,relative viability,NCI-H322M; first compound 0.05 µM,1.03
same,relative viability,NCI-H322M; first compound 0.1581 µM,0.845
same,relative viability,NCI-H322M; first compound 0.5 µM,0.8
same,relative viability,NCI-H1734; first compound 0.005 µM,0.616
same,relative viability,NCI-H1734; first compound 0.01581 µM,0.63
same,relative viability,NCI-H1734; first compound 0.05 µM,0.682
same,relative viability,NCI-H1734; first compound 0.1581 µM,0.574
same,relative viability,NCI-H1734; first compound 0.5 µM,0.565
same,relative viability,NCI-H647; first compound 0.005 µM,0.925
same,relative viability,NCI-H647; first compound 0.01581 µM,1.1
same,relative viability,NCI-H647; first compound 0.05 µM,1.13
same,relative viability,NCI-H647; first compound 0.1581 µM,1.05
same,relative viability,NCI-H647; first compound 0.5 µM,0.991
same,relative viability,EPLC-272H; first compound 0.005 µM,0.945
same,relative viability,EPLC-272H; first compound 0.01581 µM,0.829
same,relative viability,EPLC-272H; first compound 0.05 µM,0.937
same,relative viability,EPLC-272H; first compound 0.1581 µM,0.718
same,relative viability,EPLC-272H; first compound 0.5 µM,0.715
same,relative viability,NCI-H2126; first compound 0.005 µM,0.965
same,relative viability,NCI-H2126; first compound 0.01581 µM,0.946
same,relative viability,NCI-H2126; first compound 0.05 µM,1.03
same,relative viability,NCI-H2126; first compound 0.1581 µM,0.912
same,relative viability,NCI-H2126; first compound 0.5 µM,1.03
same,relative viability,NCI-H2347; first compound 0.005 µM,0.578
same,relative viability,NCI-H2347; first compound 0.01581 µM,0.679
same,relative viability,NCI-H2347; first compound 0.05 µM,0.673
same,relative viability,NCI-H2347; first compound 0.1581 µM,0.685
same,relative viability,NCI-H2347; first compound 0.5 µM,0.605
same,relative viability,LXF-289; first compound 0.005 µM,0.762
same,relative viability,LXF-289; first compound 0.01581 µM,0.742
same,relative viability,LXF-289; first compound 0.05 µM,0.82
same,relative viability,LXF-289; first compound 0.1581 µM,0.864
same,relative viability,LXF-289; first compound 0.5 µM,0.705
same,relative viability,NCI-H1993; first compound 0.005 µM,0.764
same,relative viability,NCI-H1993; first compound 0.01581 µM,0.852
same,relative viability,NCI-H1993; first compound 0.05 µM,0.926
same,relative viability,NCI-H1993; first compound 0.1581 µM,0.707
same,relative viability,NCI-H1993; first compound 0.5 µM,0.852
same,relative viability,SW 1573; first compound 0.005 µM,0.901
same,relative viability,SW 1573; first compound 0.01581 µM,0.765
same,relative viability,SW 1573; first compound 0.05 µM,0.78
same,relative viability,SW 1573; first compound 0.1581 µM,0.749
same,relative viability,SW 1573; first compound 0.5 µM,0.829
same,relative viability,NCI-H2009; first compound 0.005 µM,1.08
same,relative viability,NCI-H2009; first compound 0.01581 µM,1.02
same,relative viability,NCI-H2009; first compound 0.05 µM,1.1
same,relative viability,NCI-H2009; first compound 0.1581 µM,1.03
same,relative viability,NCI-H2009; first compound 0.5 µM,0.933
same,relative viability,NCI-H727; first compound 0.005 µM,0.72
same,relative viability,NCI-H727; first compound 0.01581 µM,0.843
same,relative viability,NCI-H727; first compound 0.05 µM,0.833
same,relative viability,NCI-H727; first compound 0.5 µM,0.869
same,relative viability,NCI-H1563; first compound 0.005 µM,0.811
same,relative viability,NCI-H1563; first compound 0.01581 µM,0.857
same,relative viability,NCI-H1563; first compound 0.05 µM,0.81
same,relative viability,NCI-H1563; first compound 0.1581 µM,0.858
same,relative viability,NCI-H1563; first compound 0.5 µM,0.919
same,relative viability,H3255; first compound 0.005 µM,0.799
same,relative viability,H3255; first compound 0.01581 µM,0.906
same,relative viability,H3255; first compound 0.05 µM,0.911
same,relative viability,H3255; first compound 0.1581 µM,0.777
same,relative viability,H3255; first compound 0.5 µM,0.8
same,relative viability,NCI-H661; first compound 0.005 µM,0.961
same,relative viability,NCI-H661; first compound 0.01581 µM,0.951
same,relative viability,NCI-H661; first compound 0.05 µM,1.03
same,relative viability,NCI-H661; first compound 0.5 µM,0.947
same,relative viability,HOP-62; first compound 0.005 µM,0.557
same,relative viability,HOP-62; first compound 0.01581 µM,0.939
same,relative viability,HOP-62; first compound 0.05 µM,0.928
same,relative viability,HOP-62; first compound 0.1581 µM,0.853
same,relative viability,HOP-62; first compound 0.5 µM,0.919
same,relative viability,LCLC-97TM1; first compound 0.005 µM,0.224
same,relative viability,LCLC-97TM1; first compound 0.01581 µM,0.302
same,relative viability,LCLC-97TM1; first compound 0.1581 µM,0.365
same,relative viability,LCLC-97TM1; first compound 0.5 µM,0.46
same,relative viability,NCI-H2023; first compound 0.005 µM,0.555
same,relative viability,NCI-H2023; first compound 0.01581 µM,0.717
same,relative viability,NCI-H2023; first compound 0.05 µM,0.657
same,relative viability,NCI-H2023; first compound 0.1581 µM,0.645
same,relative viability,NCI-H2023; first compound 0.5 µM,0.546
same,relative viability,SK-LU-1; first compound 0.005 µM,0.909
same,relative viability,SK-LU-1; first compound 0.01581 µM,0.864
same,relative viability,SK-LU-1; first compound 0.05 µM,0.932
same,relative viability,SK-LU-1; first compound 0.1581 µM,0.614
same,relative viability,SK-LU-1; first compound 0.5 µM,0.84
same,relative viability,PC-14; first compound 0.005 µM,0.796
same,relative viability,PC-14; first compound 0.01581 µM,0.879
same,relative viability,PC-14; first compound 0.05 µM,0.961
same,relative viability,PC-14; first compound 0.1581 µM,0.879
same,relative viability,PC-14; first compound 0.5 µM,0.885
